Measurements: patent US11351173B2, “Substituted pyrrolo[1,2-a]pyrimidines and their use in the treatment of medical disorders” (Bial—R&D Investments, S.A., priority 2014, dated 2022)
≈ marks a conversion by molar mass, not a printed value.

What was measured:
physchem = conditions: water, Compound Solubility in Water
[1] = target: T1, glucocerebrosidase (Gcase) (Homo sapiens, UniProt P04062); assay: Glucocerebrosidase (Gcase) activation assay, 4-methylumbelliferyl-beta-D-glucopyranoside substrate, fluorescence readout; assay type: biochemical; conditions: for activation at 0.1 µM / Percent Gcase Activation, 0.1 μM Test Compound: test compound at 0.1 μM; for activation at 0.1 µM: read-out: Percent Gcase Activation, 0.1 μM Test Compound; for activation at 1 µM / Percent Gcase Activation, 1 μM Test Compound: test compound at 1.0 μM; for activation at 1 µM: read-out: Percent Gcase Activation, 1 μM Test Compound
T1 construct: micellar solution containing 10 nM GCase and 100 nM saposin C
T1 sequence (P04062 40-536): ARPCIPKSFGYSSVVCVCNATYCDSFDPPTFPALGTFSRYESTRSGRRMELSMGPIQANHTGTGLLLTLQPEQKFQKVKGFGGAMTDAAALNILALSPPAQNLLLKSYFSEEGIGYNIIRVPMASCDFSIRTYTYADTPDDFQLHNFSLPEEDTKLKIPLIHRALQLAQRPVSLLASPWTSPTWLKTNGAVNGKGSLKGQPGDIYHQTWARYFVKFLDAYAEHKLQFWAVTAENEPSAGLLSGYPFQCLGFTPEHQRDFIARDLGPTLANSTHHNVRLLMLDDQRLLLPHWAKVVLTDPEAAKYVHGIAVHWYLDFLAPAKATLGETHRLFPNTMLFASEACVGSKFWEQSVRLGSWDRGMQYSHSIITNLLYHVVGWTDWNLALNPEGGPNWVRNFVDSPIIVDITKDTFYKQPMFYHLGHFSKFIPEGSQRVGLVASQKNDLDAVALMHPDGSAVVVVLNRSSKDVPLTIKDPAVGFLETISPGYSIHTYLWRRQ
Summary of the method: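 Test compounds are first screened at 1.0 and 0.1 μM final, then titrated in 8 points (3-fold from 5 μM) against human GCase with saposin C in phosphatidylserine/triton X-100 micelles at pH 4.7. Reactions run 15 min at room temperature, with fluorescence read at 365/440 nm.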

[2] = Compound solubility in water; conditions: water, Compound Solubility in Water, in water

| SMILES | solubility (physchem) [µg/mL] | activation at 0.1 µM [1] [%] | activation at 1 µM [1] [%] | solubility [2] [µg/mL] | Percent Gcase Activation, 0.1 μM Test Compound [1] | Percent Gcase Activation, 1 μM Test Compound [1] |
| --- | --- | --- | --- | --- | --- | --- |
| CCCCCC(=O)N1C2CCC1CC(NC(=O)c1ccn3c(C)cc(C)nc13)C2 (stereo not shown) [III-127] | 6.5 (≈ 16.4 µM) | < 10 | < 30 | – | – | – |
| Cc1cc(C)n2ccc(C(=O)NC3CC4CCC(C3)N4CC(F)(F)F)c2n1 (stereo not shown) [III-128] | 18.9 (≈ 49.7 µM) | < 10 | < 30 | – | – | – |
| Cc1cc(C)n2ccc(C(=O)Nc3ccc(-c4cccs4)nc3)c2n1 [III-275] | – | – | – | 0.01 (≈ 0.0287 µM) | *** (greater than 20% Gcase activation) | +++ (Gcase activation greater than 60%) |
| Cc1cc(C)n2ccc(C(=O)Nc3ccc(-c4ccco4)cc3)c2n1 [III-276] | – | – | – | < 0.1 | *** (greater than 20% Gcase activation) | +++ (Gcase activation greater than 60%) |
| Cc1cc(C)n2ccc(C(=O)Nc3ccc(-c4ccncc4)cc3)c2n1 [III-277] | – | – | – | 0.01 (≈ 0.0292 µM) | * (less than 10% Gcase activation) | – |
| Cc1cc(C)n2ccc(C(=O)Nc3ccc(-c4cnn(C)c4)cc3)c2n1 [III-278] | – | – | – | 0.06 (≈ 0.174 µM) | *** (greater than 20% Gcase activation) | – |
| Cc1cc(C)n2ccc(C(=O)Nc3ccc(Cl)c(COc4cccnc4)c3)c2n1 [III-279] | – | – | – | < 0.1 | *** (greater than 20% Gcase activation) | +++ (Gcase activation greater than 60%) |
| Cc1cc(C)n2ccc(C(=O)Nc3ccc(-c4cnn(C)c4)nc3)c2n1 [III-283] | – | – | – | 0.2 (≈ 0.577 µM) | * (less than 10% Gcase activation) | + (less than 30% Gcase activation) |
| Cc1cc(C)n2ccc(C(=O)NC3CCc4nc(C)oc4C3)c2n1 (stereo not shown) [III-284] | – | < 10 | < 30 | 21.1 (≈ 65 µM) | – | – |
| COC1CC(NC(=O)c2ccn3c(C)cc(C)nc23)c2ccccc21 (stereo not shown) [III-285] | – | 10 to 20 | > 60 | 23.8 (≈ 71 µM) | – | – |
| Cc1cc(C)n2ccc(C(=O)N[C@H]3CC[C@H](OC4CC4)CC3)c2n1 [III-286] | – | 10 to 20 | > 60 | 8.8 (≈ 26.9 µM) | – | – |
| CCC(C)(NC(=O)c1ccn2c(C)cc(C)nc12)c1ccccc1 (stereo not shown) [III-287] | – | > 20 | > 60 | 1.6 (≈ 4.98 µM) | – | – |
| Cc1cc(C)n2ccc(C(=O)N[C@H]3CC[C@H](OCC(C)C)CC3)c2n1 [III-288] | – | > 20 | > 60 | 8.7 (≈ 25.3 µM) | – | – |
| Cc1cc(C)n2ccc(C(=O)N[C@H]3CC[C@H](OC(C)(C)C)CC3)c2n1 [III-289] | – | 10 to 20 | > 60 | 17.1 (≈ 49.8 µM) | – | – |
| CCCO[C@H]1CC[C@H](NC(=O)c2ccn3c(C)cc(C)nc23)CC1 [III-290] | – | < 10 | > 60 | 17.3 (≈ 52.5 µM) | – | – |
